Measured values published in US20250295763A1 (priority 2024, published 2025).
Where two headings read alike, the source gives them in different places. Peptide text beside a SMILES is read from it. * marks the point of attachment. X1 = CCCCCCCCCCCCCCCC(=O)OCC(C*)OC(=O)CCCCCCCCCCCCCCC

Columns and labels:
[1] = for Average body weight change (%) Post-dose 1 D 1 / Body weight change (%) Post-dose 1 D 1: i.m. Days 0 and 14, 0.3 mcg H3N2; for Average body weight change (%) Post-dose 1 D 2 / Average body weight change (%) Post-dose 1 D 14 / Average body weight change (%) Post-dose 2 D 15 / Average body weight change (%) Post-dose 2 D 16 / Average body weight change (%) Post-dose 2 D 21 / Body weight change (%) Post-dose 1 D 2 / Body weight change (%) Post-dose 1 D 14 / Body weight change (%) Post-dose 2 D 15 / Body weight change (%) Post-dose 2 D 16 / Body weight change (%) Post-dose 2 D 21: same groups
[2] = test system: H3N2; format: in vivo, C57BL/6 mice
[3] = Table 3, 5/50 mcg TLR4 agonist/Synsap, alone: 5 mcg 3D-6A-PHAD, 5 mcg EcML, 10 mcg TLR4-1, 50 mcg Synsap, 5/5 mcg AS01B
[4] = Table 4, after the boost (day 28), 5 mcg TLR4 agonist / 50 mcg Synsap, 0.3 mcg H3N2

COc1ccc(CCCCCCCCNC(=O)[C@H]2O[C@@H](O[C@H]3CCC4(C)C5CC=C6C7CC(C)(C)CC[C@]7(C(=O)O[C@@H]7OC(C)[C@H](O)[C@H](O)C7O[C@@H]7OC(C)[C@H](O[C@@H]8OC[C@@H](O)[C@H](O)C8O)[C@H](O)C7O)C(O)CC6(C)[C@@]5(C)CC[C@H]4[C@@]3(C)C=O)[C@H](O)[C@@H](O)[C@@H]2O)cc1 (stereo partly shown) [Synsap 1]
Average body weight change (%) Post-dose 1 D 1 [1, 3]: −1.096%
Average body weight change (%) Post-dose 1 D 2 ([1]; Table 3): −1.736%
Average body weight change (%) Post-dose 1 D 14 ([1]; Table 3): 3.753%
Average body weight change (%) Post-dose 2 D 15 ([1]; Table 3): 2.417%
Average body weight change (%) Post-dose 2 D 16 ([1]; Table 3): −1.393%
Average body weight change (%) Post-dose 2 D 21 ([1]; Table 3): 6.148%
HI titers GMT mean [2, 4]: 320
HI titers Fold (compare to AS01B) ([2]; Table 4, day 28): 0.25
HI titers Fold (compare to H3N2) ([2]; Table 4, day 28): 2

Poly(I:C) [reference compound]
HI titer Fold (compare to H3N2) ([2]; mouse, in vivo): 1
HI titer Fold (compare to SynSap 21) ([2]; mouse, in vivo): 0.5
HI titer Fold (compare to TLR3) ([2]; mouse, in vivo): 0.3299
HI titer GMT mean ([2]; mouse, in vivo): 640

CCCCCCCCCCCCCCCC(=O)OCC(CSC[C@H](N)C(=O)N[C@@H](CO)C(=O)N[C@@H](CCCCN)C(=O)N[C@@H](CCCCN)C(=O)N[C@@H](CCCCN)C(=O)N[C@@H](CCCCN)C(=O)O)OC(=O)CCCCCCCCCCCCCCC (stereo partly shown) [Pam3CSK4, reference compound] (H-C(X1)SKKKK-OH)
Body weight change (%) Post-dose 1 D 1 ([1]; Table 5, 100 mcg Synsap 5, 10 mcg Pam3CSK4): −0.996%
Body weight change (%) Post-dose 1 D 2 ([1]; Table 5): 2.635%
Body weight change (%) Post-dose 1 D 14 ([1]; Table 5): 6.308%
Body weight change (%) Post-dose 2 D 15 ([1]; Table 5): −0.998%
Body weight change (%) Post-dose 2 D 16 ([1]; Table 5): 0.169%
Body weight change (%) Post-dose 2 D 21 ([1]; Table 5): 4.551%
HI titers GMT mean ([2]; Table 6, after the boost (day 28), 100 mcg Synsap 5, 10 mcg Pam3CSK4, 0.3 mcg H3N2): 2176
HI Titers Fold (compare to CpG1018) ([2]; Table 6, day 28): 1.0
HI Titers Fold (compare to SynSap 17) ([2]; Table 6, day 28): 1.1
HI titers Fold (compare to H3N2) ([2]; Table 6, day 28): 14

CC1O[C@@H](OC(=O)[C@]23CCC(C)(C)CC2C2=CCC4C5(C)CC[C@H](O[C@@H]6O[C@H](C(=O)NCCCCCCCCc7ccc(Oc8ccccc8)cc7)[C@@H](O)[C@H](O)[C@H]6O)[C@](C)(C=O)[C@@H]5CC[C@]4(C)C2(C)CC3O)C(O[C@@H]2OC(C)[C@H](O[C@@H]3OC[C@@H](O)[C@H](O)C3O)[C@H](O)C2O)[C@@H](O)[C@H]1O (stereo partly shown) [Synsap 3]
Average body weight change (%) Post-dose 1 D 1 ([1]; Table 1, 5 mcg 3D-PHAD with 5, 50, 75 or 100 mcg Synsap 3, Synsap 3 alone 50 mcg): 2.176%
Average body weight change (%) Post-dose 1 D 2 ([1]; Table 1): 2.174%
Average body weight change (%) Post-dose 1 D 14 ([1]; Table 1): 6.946%
Average body weight change (%) Post-dose 2 D 15 ([1]; Table 1): −0.739%
Average body weight change (%) Post-dose 2 D 16 ([1]; Table 1): 1.208%
Average body weight change (%) Post-dose 2 D 21 ([1]; Table 1): 2.329%
Average body weight change (%) Post-dose 1 D 1 [1, 3]: 2.176%
Average body weight change (%) Post-dose 1 D 2 ([1]; Table 3): 2.174%
Average body weight change (%) Post-dose 1 D 14 ([1]; Table 3): 6.946%
Average body weight change (%) Post-dose 2 D 15 ([1]; Table 3): −0.739%
Average body weight change (%) Post-dose 2 D 16 ([1]; Table 3): 1.208%
Average body weight change (%) Post-dose 2 D 21 ([1]; Table 3): 2.329%
HI titers GMT mean [2, 4]: 192
HI titers Fold (compare to AS01B) ([2]; Table 4, day 28): 0.15
HI titers Fold (compare to H3N2) ([2]; Table 4, day 28): 1.2

CC1O[C@@H](OC(=O)[C@]23CCC(C)(C)CC2C2=CCC4C5(C)CC[C@H](O[C@@H]6O[C@H](C(=O)NCCCCCCCCc7ccc(Oc8ccccc8)cc7)[C@@H](O)[C@H](O)[C@H]6O)[C@](C)(C=O)[C@@H]5CC[C@]4(C)C2(C)CC3O)C(O[C@@H]2OC(C)[C@H](O[C@@H]3OC[C@@H](O)[C@H](O)C3O)[C@H](O[C@@H]3OC(CO)[C@@H](O)[C@H](O)C3O)C2O)[C@@H](O)[C@H]1O (stereo partly shown) [Synsap 17]
Body weight change (%) Post-dose 1 D 1 ([1]; Table 9, 10 mcg CpG 1018 with 10, 50, 75 or 100 mcg Synsap 17, or 50 mcg CpG 1018 with 10 mcg Synsap 17): −1.769%
Body weight change (%) Post-dose 1 D 2 ([1]; Table 9): −0.704%
Body weight change (%) Post-dose 1 D 14 ([1]; Table 9): 3.586%
Body weight change (%) Post-dose 2 D 15 ([1]; Table 9): −0.277%
Body weight change (%) Post-dose 2 D 16 ([1]; Table 9): −0.654%
Body weight change (%) Post-dose 2 D 21 ([1]; Table 9): 2.921%
HI titer GMT mean ([2]; Table 10, after the boost (day 28), CpG 1018 / Synsap 17 ratios, 0.3 mcg H3N2): 183.8
HI titer Fold (compare to CpG1018) ([2]; Table 10, day 28): 0.6
HI titer Fold (compare to H3N2) ([2]; Table 10, day 28): 1.1
HI titer Fold (compare to Synsap 17) ([2]; Table 10, day 28): 1.0

CC1O[C@@H](OC2[C@H](OC(=O)[C@]34CCC(C)(C)CC3C3=CCC5C6(C)CC[C@H](O[C@@H]7O[C@H](C(=O)NCCCCCCCCc8ccc(Oc9ccc(F)cc9)cc8)[C@@H](O)[C@H](O)[C@H]7O)[C@](C)(C=O)[C@@H]6CC[C@]5(C)C3(C)CC4O)OC[C@H](O)[C@H]2O)C(O)[C@@H](O)[C@H]1O[C@@H]1OC[C@@H](O)[C@H](O)C1O (stereo partly shown) [Synsap 14]
Body weight change (%) Post-dose 1 D 1 ([1]; Table 7, 10 mcg R848 with 2, 10, 50 or 100 mcg Synsap 14): −1.769%
Body weight change (%) Post-dose 1 D 2 ([1]; Table 7): −0.704%
Body weight change (%) Post-dose 1 D 14 ([1]; Table 7): 3.586%
Body weight change (%) Post-dose 2 D 15 ([1]; Table 7): −0.277%
Body weight change (%) Post-dose 2 D 16 ([1]; Table 7): −0.654%
Body weight change (%) Post-dose 2 D 21 ([1]; Table 7): 3.064%
HI titer GMT mean ([2]; Table 8, after the boost (day 28), 10 mcg R848 with 2, 10, 50 or 100 mcg Synsap 14, 0.3 mcg H3N2): 192
HI titer Fold (compare to H3N2 alone) ([2]; Table 8, day 28): 1.2
HI titer Fold (compare to R848 treated group) ([2]; Table 8, day 28): 1.0
HI titer Fold (compare to SynSap 14 treated group) ([2]; Table 8, day 28): 1.0
